Experimental data taken from publication PMC10689823, “Discovery of a Drug-like, Natural Product-Inspired DCAF11 Ligand Chemotype” (Nature Communications, 2023).

Target: BRD4S-TagBFP reporter (Homo sapiens, UniProt O60885)
Experiment: FACS-based CRISPR/Cas9 BRD4 protein stability screen
Settings: Mageck_Gene level
Description: The virus containing supernatant was cleared of cellular debris by filtration through a 0.45-µm PES filter and used to transduce KBM7 BRD4-BFP reporter cells harboring a doxycycline inducible Cas9 allele at a multiplicity of infection (MOI) of 0.05 and 1,000-fold library representation. Library-transduced cells were selected with G418 (1 mg ml^−1, Gibco) for 14 days, expanded and Cas9 expression was induced with DOX (0.4 µg ml^−1, PanReac AppliChem).
Cells were washed with and stored in FACS buffer (PBS containing 5% FBS and 1 mM EDTA) at 4 °C overnight. The next day, cells were strained trough a 35 µm nylon mesh and sorted on a BD FACSAria™ Fusion (BD Biosciences) using a 85 µm nozzle. Aggregates, dead (ZombieNIR positive), Cas9-negative (GFP) and sgRNA library-negative (Thy1.1-APC) cells were excluded, and the remaining cells were sorted based on their BRD4-BFP and mCherry levels into BRD4^HIGH (10% of cells), BRD4^MID (30%) and BRD4^LOW (10%) fractions. For each sample, cells corresponding to at least 2,000-fold library representation were sorted per replicate.
Next-generation sequencing (NGS) libraries of sorted cell fractions were prepared as previously described[25]. In brief, genomic DNA was isolated by cell lysis (10 mM Tris-HCl, 150 mM NaCl, 10 mM EDTA, 0.1% SDS), proteinase K treatment (New England Biolabs) and DNAse-free RNAse digest (Thermo Fisher Scientific), followed by two rounds of phenol extraction and 2-propanol precipitation. Isolated genomic DNA was subjected to several freeze–thaw cycles before nested polymerase chain reaction (PCR) amplification of the sgRNA cassette.
Barcoded NGS libraries for each sorted population were generated using a two-step PCR protocol using AmpliTaq Gold (Invitrogen). The resulting PCR products were purified using Mag-Bind® TotalPure NGS beads (Omega Bio-tek) and amplified in a second PCR introducing the standard Illumina adapters. The final Illumina libraries were bead-purified, pooled and sequenced on a HiSeq 3500 platform (Illumina).
Screen analysis was performed as previously described[25]. Briefly, sequencing reads were quantified using the crispr-process-nf Nextflow workflow, available at https://github.com/ZuberLab/crispr-process-nf/tree/566f6d46bbcc2a3f49f51bbc96b9820f408ec4a3. For statistical analysis, we used the crispr-mageck-nf Nextflow workflow, available at https://github.com/ZuberLab/crispr-mageck-nf/tree/c75a90f670698bfa78bfd8be786d6e5d6d4fc455. To calculate gene-level enrichment, the sorted populations (BRD4^HIGH or BRD4^LOW) were compared to the BRD4^MID populations in MAGeCK (0.5.9)[46], using median normalized read counts.

High_lfc (Gene DCAF1): -0.04 | High_logP (Gene DCAF1): 0.22 | Low_lfc (Gene DCAF1): 0.71 | Low_logP (Gene DCAF1): 1.93 | High_lfc (Gene DCAF4): -0.33 | High_logP (Gene DCAF4): 0.01 | Low_lfc (Gene DCAF4): -0.08 | Low_logP (Gene DCAF4): 0.63 | High_lfc (Gene DCAF5): -0.12 | High_logP (Gene DCAF5): 0.13 | Low_lfc (Gene DCAF5): 0.4 | Low_logP (Gene DCAF5): 1.39 | High_lfc (Gene DCAF6): 0.1 | High_logP (Gene DCAF6): 0.11 | Low_lfc (Gene DCAF6): 0.51 | Low_logP (Gene DCAF6): 1.55 | High_lfc (Gene DCAF7): -0.09 | High_logP (Gene DCAF7): 0.04 | Low_lfc (Gene DCAF7): 0.11 | Low_logP (Gene DCAF7): 0.24 | High_lfc (Gene DCAF8): -0.19 | High_logP (Gene DCAF8): 0.14 | Low_lfc (Gene DCAF8): 0.08 | Low_logP (Gene DCAF8): 0.18 | High_lfc (Gene DCAF12): 0.07 | High_logP (Gene DCAF12): 0.29 | Low_lfc (Gene DCAF12): -0.16 | Low_logP (Gene DCAF12): 0.06 | High_lfc (Gene DCAF13): -0.33 | High_logP (Gene DCAF13): 0.07 | Low_lfc (Gene DCAF13): -0.3 | Low_logP (Gene DCAF13): 0.33 | High_lfc (Gene DCAF15): -0.01 | High_logP (Gene DCAF15): 0.12 | Low_lfc (Gene DCAF15): 0.32 | Low_logP (Gene DCAF15): 0.83 | High_lfc (Gene DCAF16): 0.71 | High_logP (Gene DCAF16): 2.61 | Low_lfc (Gene DCAF16): -0.66 | Low_logP (Gene DCAF16): 0.04 | High_lfc (Gene DCAF17): 0.07 | High_logP (Gene DCAF17): 0.17 | Low_lfc (Gene DCAF17): -0.16 | Low_logP (Gene DCAF17): 0.07 | High_lfc (Gene DCUN1D1): 0.27 | High_logP (Gene DCUN1D1): 1.62 | Low_lfc (Gene DCUN1D1): -0.11 | Low_logP (Gene DCUN1D1): 0.82 | High_lfc (Gene DCUN1D2): -0.24 | High_logP (Gene DCUN1D2): 0 | Low_lfc (Gene DCUN1D2): 0.46 | Low_logP (Gene DCUN1D2): 1.57 | High_lfc (Gene DCUN1D3): 0.07 | High_logP (Gene DCUN1D3): 0.22 | Low_lfc (Gene DCUN1D3): 0.29 | Low_logP (Gene DCUN1D3): 0.82 | High_lfc (Gene DCUN1D4): -0.09 | High_logP (Gene DCUN1D4): 0.04 | Low_lfc (Gene DCUN1D4): -0.2 | Low_logP (Gene DCUN1D4): 0.05 | High_lfc (Gene DCUN1D5): 0.69 | High_logP (Gene DCUN1D5): 2.79 | Low_lfc (Gene DCUN1D5): -0.49 | Low_logP (Gene DCUN1D5): 0 | High_lfc (Gene DDA1): 0.43 | High_logP (Gene DDA1): 1.02 | Low_lfc (Gene DDA1): -0.23 | Low_logP (Gene DDA1): 0.16 | High_lfc (Gene DDB1): 2.03 | Low_lfc (Gene DDB1): 0.4 | Low_logP (Gene DDB1): 0.83 | High_lfc (Gene DDB2): 0.02 | High_logP (Gene DDB2): 0.06 | Low_lfc (Gene DDB2): 0.07 | Low_logP (Gene DDB2): 0.53 | High_lfc (Gene DET1): -0.36 | High_logP (Gene DET1): 0.06 | Low_lfc (Gene DET1): -0.27 | Low_logP (Gene DET1): 0.06 | High_lfc (Gene DHX15): 0.66 | Low_lfc (Gene DHX15): 0.13 | Low_logP (Gene DHX15): 0.31 | High_lfc (Gene DTL): -0.25 | High_logP (Gene DTL): 0.1 | Low_lfc (Gene DTL): 0.46 | Low_logP (Gene DTL): 1.87 | High_lfc (Gene ECT2L): -0.03 | High_logP (Gene ECT2L): 0.31 | Low_lfc (Gene ECT2L): -0.31 | Low_logP (Gene ECT2L): 0.2 | High_lfc (Gene EED): 0.01 | High_logP (Gene EED): 0.06 | Low_lfc (Gene EED): -0.55 | Low_logP (Gene EED): 0.01 | High_lfc (Gene EIF4A1): -0.26 | High_logP (Gene EIF4A1): 0.15 | Low_lfc (Gene EIF4A1): -0.34 | Low_logP (Gene EIF4A1): 0.04 | High_lfc (Gene EIF4A3): -0.3 | High_logP (Gene EIF4A3): 0.1 | Low_lfc (Gene EIF4A3): 0.62 | Low_logP (Gene EIF4A3): 1.82 | High_lfc (Gene ELOA2): 0.02 | High_logP (Gene ELOA2): 0.19 | Low_lfc (Gene ELOA2): -0.02 | Low_logP (Gene ELOA2): 0.17 | High_lfc (Gene ELOA3): -0.12 | High_logP (Gene ELOA3): 0.33 | Low_lfc (Gene ELOA3): -0.41 | Low_logP (Gene ELOA3): 0.06 | High_lfc (Gene ELOA3D): -0.34 | High_logP (Gene ELOA3D): 0.11 | Low_lfc (Gene ELOA3D): -0.14 | Low_logP (Gene ELOA3D): 0.69 | High_lfc (Gene ELOA): -0.54 | High_logP (Gene ELOA): 0 | Low_lfc (Gene ELOA): 0.05 | Low_logP (Gene ELOA): 0.65 | High_lfc (Gene ELOB): -0.05 | High_logP (Gene ELOB): 0.33 | Low_lfc (Gene ELOB): 0.22 | Low_logP (Gene ELOB): 0.4 | High_lfc (Gene ELOC): -0.21 | High_logP (Gene ELOC): 0.17 | Low_lfc (Gene ELOC): 0.63 | Low_logP (Gene ELOC): 1.29 | High_lfc (Gene ENC1): -0.27 | High_logP (Gene ENC1): 0.19 | Low_lfc (Gene ENC1): -0.31 | Low_logP (Gene ENC1): 0.09 | High_lfc (Gene EPHA4): 0.01 | High_logP (Gene EPHA4): 0.19 | Low_lfc (Gene EPHA4): -0.17 | Low_logP (Gene EPHA4): 0.06 | High_lfc (Gene ERCC8): -0.19 | High_logP (Gene ERCC8): 0.27 | Low_lfc (Gene ERCC8): -0.63 | Low_logP (Gene ERCC8): 0.01 | High_lfc (Gene ESCO1): 0.1 | High_logP (Gene ESCO1): 0.14 | Low_lfc (Gene ESCO1): -0.14 | Low_logP (Gene ESCO1): 0.11 | High_lfc (Gene FAM9A): -0.28 | High_logP (Gene FAM9A): 0.03 | Low_lfc (Gene FAM9A): -0.03 | Low_logP (Gene FAM9A): 0.66 | High_lfc (Gene FBXL2): -0.01 | High_logP (Gene FBXL2): 0.32 | Low_lfc (Gene FBXL2): -0.67 | Low_logP (Gene FBXL2): 0.02 | High_lfc (Gene FBXL3): 0.05 | High_logP (Gene FBXL3): 0.1 | Low_lfc (Gene FBXL3): 0.28 | Low_logP (Gene FBXL3): 0.58 | High_lfc (Gene FBXL4): -0.08 | High_logP (Gene FBXL4): 0.06 | Low_lfc (Gene FBXL4): 0.06 | Low_logP (Gene FBXL4): 0.49 | High_lfc (Gene FBXL5): 0.03 | High_logP (Gene FBXL5): 0.04 | Low_lfc (Gene FBXL5): 0.05 | Low_logP (Gene FBXL5): 0.32 | High_lfc (Gene FBXL6): 0.08 | High_logP (Gene FBXL6): 0.54 | Low_lfc (Gene FBXL6): 0.07 | Low_logP (Gene FBXL6): 0.24 | High_lfc (Gene FBXL7): -0.35 | High_logP (Gene FBXL7): 0.03 | Low_lfc (Gene FBXL7): -0.35 | Low_logP (Gene FBXL7): 0.01 | High_lfc (Gene FBXL8): -0.11 | High_logP (Gene FBXL8): 0.39 | Low_lfc (Gene FBXL8): 0.2 | Low_logP (Gene FBXL8): 0.54 | High_lfc (Gene FBXL12): 0.01 | High_logP (Gene FBXL12): 0.22 | Low_lfc (Gene FBXL12): 0.06 | Low_logP (Gene FBXL12): 0.38 | High_lfc (Gene FBXL13): -0.18 | High_logP (Gene FBXL13): 0.02 | Low_lfc (Gene FBXL13): -0.03 | Low_logP (Gene FBXL13): 0.46 | High_lfc (Gene FBXL14): -0.12 | High_logP (Gene FBXL14): 0.22 | Low_lfc (Gene FBXL14): 0.15 | Low_logP (Gene FBXL14): 0.61 | High_lfc (Gene FBXL15): 0.41 | High_logP (Gene FBXL15): 0.56 | Low_lfc (Gene FBXL15): 0.18 | Low_logP (Gene FBXL15): 0.28 | High_lfc (Gene FBXL16): 0.12 | High_logP (Gene FBXL16): 0.12 | Low_lfc (Gene FBXL16): -0.11 | Low_logP (Gene FBXL16): 0.07 | High_lfc (Gene FBXL17): 0.03 | High_logP (Gene FBXL17): 0.74 | Low_lfc (Gene FBXL17): -0.02 | Low_logP (Gene FBXL17): 0.44 | High_lfc (Gene FBXL18): 0.28 | High_logP (Gene FBXL18): 1.09
Compound: Cc1sc2c(c1C)C(c1ccc(Cl)cc1)=N[C@@H](CC(=O)NCCOCCOCCOCCOCCNC(=O)COc1c(Br)cc(/C=C3\C(=O)Nc4ccc(Br)cc43)cc1Br)c1nnc(C)n1-2 [Compound 9]
